# Key:
# [1] = Carboxyfluorescein dye leakage from LUVs, Aβ40; format: biochemical
# Experimental: Smaller Aβ oligomers or protofibrils are more toxic than mature fibrils in AD progression due to their ability to disrupt membranes via pore formation.[37,38] […] To evaluate this, we performed a membrane leakage assay on carboxyfluorescein-loaded large unilamellar vesicles (LUVs).[38] The time required for Aβ40 oligomer and mature fibril formation is 12 h and 72 h, respectively (inferred from ThT assay, black curve, Fig. 2a), which directed us to set up the LUV leakage assay. […] The fluorescence intensity of complete dye release from LUVs by Triton X-100 served as a positive control (100% leakage), and untreated dye-loaded LUVs assisted as a negative control. […]
# e. Time-resolved photoluminescence (TRPL) […]
# μM. Then, 600 μL of peptide sample was placed in a 1 mL fluorescence cuvette and measure the excited state lifetime on Eddinburg FSP920 Instrument. f. […]
# Prior to the analysis, samples were filtered through 0.45 µm PVDF membrane. […] For each sample, the analyses were recorded three times with 11 sub-runs using the multimodal mode. The Z-average diameter was calculated from the correlation function using Malvern technology software. g. […]
# h. Carboxyfluorescein dye loaded Large Unilamellar Vesicles (LUVs) Leakage Study For leakage study, peptide and lipids were taken in 1:20 molar ratios, and the dye release was monitored by fluorescence emission. […]
# SH-SY5Y cells = assay: LDH release assay, Aβ40 induced membrane damage; format: cell-based, human; details: Aβ40 10 μM, 24 h
# Experimental: Then, we explored the membrane damage induced by Aβ40 (ref. [45] and [46]) using the lactate dehydrogenase (LDH) assay.
# The release of cytosolic enzyme lactate dehydrogenase (LDH) into the culture medium indicates cell death due to the disruption of membrane integrity. Cell deathwas assessed by measuring LDH release in the culture medium by photocolorimetric kit according to the manufacturer’s protocol (Abcam, Cambridge, MA, USA). An increase in the number of lysed cell increases LDH activity in the culture medium proportionately. […]
# Next, 50 µl culture supernatant was collected from each well and added to an assay mixture that was prepared by adding an equal amount of LDH substrate, co-factors, and dye solutions and incubated in the dark for 40mins at 37°C. […] Absorbance was measured at 490 nm with a reference filter of 660nm. […]
# Generation of intracellular reactive oxygen species was measured by a spectrofluorimetric method using peroxide sensitive fluorescent probe 2′,7′-Dichlorofluorescin diacetate (DCFH-DA).11 In brief, SH-SY5Y […]
# or both for 24h. […] Cells were then washed twice with PBS, and fluorescent intensity was measured by using a fluorescence microplate reader (Bio Rad, CA, USA) with an excitation filter of 490 nm and an emission filter of 520 nm.
substance,measurement,setting,value
Aβ40: commercially available Aβ40 peptide,dye leakage from LUVs,"[1]; Aβ40 oligomers (12 h aged), until 100 min, untreated LUVs ∼9%, Triton X-100 = 100%",~40%
same,dye leakage from LUVs,"[1]; mature Aβ40 fibrils (72 h), 100 min, peptide:lipid 1:20",~15%
same,LDH release by Aβ40 alone,SH-SY5Y cells,released a significant amount of cytosolic LDH

# — paper PMC8179358, “An explicitly designed paratope of amyloid-β prevents neuronal apoptosis in vitro and hippocampal damage in rat brain” (Chemical Science, 2020)
